Calls of active or inactive are those of the source.
What was measured:
Cytochrome P450 1A2 = target: T1, Cytochrome P450 1A2 (Homo sapiens, UniProt P05177);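 further: PubChem cytochrome P450 panel assay, CYP1A2 panel member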
T1 sequence (P05177 whole entry): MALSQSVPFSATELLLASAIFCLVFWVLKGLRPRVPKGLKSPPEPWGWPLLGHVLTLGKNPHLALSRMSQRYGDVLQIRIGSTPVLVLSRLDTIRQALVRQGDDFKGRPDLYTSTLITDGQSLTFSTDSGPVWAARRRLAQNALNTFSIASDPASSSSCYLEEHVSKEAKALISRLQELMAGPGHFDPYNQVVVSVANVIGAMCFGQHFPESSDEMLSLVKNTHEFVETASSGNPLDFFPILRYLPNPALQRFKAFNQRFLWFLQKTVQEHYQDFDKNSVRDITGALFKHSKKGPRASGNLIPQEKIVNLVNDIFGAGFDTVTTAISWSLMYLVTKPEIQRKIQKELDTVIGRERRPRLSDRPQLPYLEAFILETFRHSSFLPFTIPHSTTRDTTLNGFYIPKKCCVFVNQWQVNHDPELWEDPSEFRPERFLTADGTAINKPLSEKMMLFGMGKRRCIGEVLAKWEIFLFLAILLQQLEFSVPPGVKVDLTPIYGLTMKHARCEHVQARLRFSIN

Beta-galactosidase = Beta-galactosidase (Escherichia coli, UniProt Q8VNN2); experiment: Dose response counterscreen for EBI2 assay utilizing the enzyme, b-galactosidase.; type: functional
Cytochrome P450 3A4 = Cytochrome P450 3A4 (Homo sapiens, UniProt P08684);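 further: CYP3A4 tested as one member of a cytochrome P450 panel screen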
Cytochrome P450 2C9 [1] = target: T2, Cytochrome P450 2C9 (Homo sapiens, UniProt P11712)
Cytochrome P450 2C19 = Cytochrome P450 2C19 (Homo sapiens, UniProt P33261); experiment: Cytochrome panel assay with activity outcomes. Panel member name: p450-cyp2c19 Compounds with AC50 equal or less than 10 uM are considered active; type: functional; details: read-out: AC50
Prothrombin = Prothrombin (Homo sapiens, UniProt P00734); experiment: Thrombin 1536 HTS Dose Response Confirmation. [Related pubchem assays: 1046 (Thrombin 1536 HTS; hits were confirmed in this assay)]; type: functional
[2] = viability loss in Vero cells – cytotoxicity control for Vif-APOBEC3G degradation inhibitor project, dose response (AID 1117358); type: functional; details: Vero
[3] = target: T3, Heat shock factor protein 1 (Mus musculus, UniProt P38532); experiment: decrease of HSF1-responsive luciferase luminescence – cell-based, NIH3T3, dose retest, confirmation (AID 2382); type: functional;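 further: NIH3T3 fibroblasts with HSF1-driven luciferase reporter stressed by proteasome inhibitor MG132; luminescence from HSF1-driven luciferase expression after 8 hours of MG132 stress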
T3 sequence (P38532 whole entry): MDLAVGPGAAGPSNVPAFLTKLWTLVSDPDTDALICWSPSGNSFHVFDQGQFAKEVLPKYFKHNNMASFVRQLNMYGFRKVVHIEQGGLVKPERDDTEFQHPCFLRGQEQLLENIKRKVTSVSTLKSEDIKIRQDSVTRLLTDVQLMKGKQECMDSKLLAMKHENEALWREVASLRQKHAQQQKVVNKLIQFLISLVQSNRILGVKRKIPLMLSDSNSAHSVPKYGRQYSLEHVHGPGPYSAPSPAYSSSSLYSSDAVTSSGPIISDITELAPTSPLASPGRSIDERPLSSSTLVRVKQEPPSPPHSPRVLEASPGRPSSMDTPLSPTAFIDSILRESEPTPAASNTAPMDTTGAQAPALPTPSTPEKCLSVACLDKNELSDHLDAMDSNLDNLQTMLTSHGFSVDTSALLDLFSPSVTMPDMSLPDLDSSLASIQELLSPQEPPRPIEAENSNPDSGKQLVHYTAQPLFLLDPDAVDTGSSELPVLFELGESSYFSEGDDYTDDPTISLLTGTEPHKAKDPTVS

[4] = blockers of bursicon-stimulated LGR2 cAMP reporter – cell-based, HEK293, CRE-luciferase reporter, cherry pick, set 2, dose response (AID 743343); type: functional;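 further: transfected cells were stimulated with diluted bursicon conditioned medium after compound addition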
[5] = blockade of melanocortin 4 receptor signaling – cell-based, plate reader, cherry pick, counter-screen for LGR2 antagonist project, dose response (AID 743444); type: functional;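 further: transfected HEK 293 cells stimulated with alpha-MSH peptide; potency of inhibitors of the alpha-MSH evoked signal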
HEK293 = experiment: EBV LMP1 TES2 canonical NF-kB signalling blockers – cell-based, HEK293, luciferase, cherry-pick, dose response (AID 588343); type: functional; details: Homo sapiens
[6] = blockers of HIV-1 ZM109 envelope-driven cell-cell fusion – HeLa effector, CEM target cells, luciferase, cherry-pick, dose response (AID 652058); type: functional, cell-based;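 further: luciferase signal from HIV-1 Env mediated cell-cell fusion of effector and target cells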
[7] = viability of PTEN-deleted HCT116 cells – cell-based, HCT116 PTEN knockout, dose response (AID 1047); type: functional;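 further: HCT116 colon tumor cells with PTEN knocked out; cells exposed to compound for 60 hours before readout; potency for loss of cell viability measured by luminescence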
[8] = off-target signal loss in HeLa-CEM21 co-culture – HeLa F-luc CTL cells, cherry-picked, counter-screen for HIV-1 Env fusion inhibitor project, dose response (AID 652040); type: functional, cell-based;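 further: potency for signal decrease marking cytotoxic or nonspecific inhibition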
[9] = HIV-1 AD8 envelope cell-cell fusion blockers – cherry-pick, dose response (AID 652062); type: functional, cell-based;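 further: luciferase signal from cell-cell fusion driven by HIV-1 clade B AD8 Env; potency is for inhibitors of fusion seen as a drop in luminescence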
[10] = viability of HCT116 lacking mutant beta-catenin – cell-based, human colon tumor, dose response (AID 1045); type: functional;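 further: HCT116 colon tumor cells with beta catenin knocked out; cells exposed to compound for 60 hours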
[11] = viability loss in CEM21 cells – cell-based, CellTiter-Glo luminescence, cherry-picked, cytotoxicity control for viral fusion inhibitor project, dose response (AID 652042); type: functional;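 further: potency for signal decrease meaning cytotoxicity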
[12] = target: Ras and Rab interactor 1/Tyrosine-protein kinase ABL1 (Homo sapiens, UniProt P00519+Q13671); type: functional;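 further: biochemical TR-FRET dose-response test measuring inhibition of binding between Rin1 and Abl proteins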
cells = type: functional
[13] = target: Luciferin 4-monooxygenase (Photinus pyralis, UniProt P08659); experiment: inhibition of purified Photinus pyralis luciferase – biochemical, luminescence, dose response (AID 1891)
[14] = target: T4, Mannose-6-phosphate isomerase (Homo sapiens, UniProt P34949); experiment: MPI inhibition at elevated mannose 6-phosphate – biochemical, fluorescence intensity, high mannose 6-phosphate, primary screen (AID 1220)
T4 sequence (P34949 whole entry): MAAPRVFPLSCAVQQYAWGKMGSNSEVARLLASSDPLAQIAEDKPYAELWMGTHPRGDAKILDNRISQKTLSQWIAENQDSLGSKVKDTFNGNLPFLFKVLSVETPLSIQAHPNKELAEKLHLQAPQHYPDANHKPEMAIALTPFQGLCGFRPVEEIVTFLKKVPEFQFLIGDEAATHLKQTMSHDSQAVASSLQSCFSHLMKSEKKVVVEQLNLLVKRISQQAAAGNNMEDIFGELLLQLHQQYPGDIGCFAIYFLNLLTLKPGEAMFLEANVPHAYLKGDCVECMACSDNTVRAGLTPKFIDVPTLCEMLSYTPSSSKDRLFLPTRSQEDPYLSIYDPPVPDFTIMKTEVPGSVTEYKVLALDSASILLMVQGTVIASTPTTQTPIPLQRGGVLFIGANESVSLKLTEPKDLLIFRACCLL

[15] = Luminescence Cell-Based Dose Confirmation HTS to Identify Inhibitors of Platelet Dense Granule Release. [Related pubchem assays: 1663 (Primary HTS), 1678 (Summary of Project)]; type: functional
Paired box protein Pax-8 = Paired box protein Pax-8 (Homo sapiens, UniProt Q06710); experiment: PAX8 transcriptional activity inhibition in RMG-I – RMG-I cells, luciferase, cherry-pick, dose response (AID 687027); type: functional, cell-based;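 further: luciferase reporter driven by Pax8 target thyroperoxidase promoter measured by SteadyGlo luminescence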
BJ [16] = experiment: growth inhibition of engineered Ras-driven BJ cells – cell-based, alamar blue fluorescence, cherrypicked samples, dose response (AID 2631); type: functional; details: Homo sapiens;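 further: confirmatory dose-response assay in RAS-dependent BJ fibroblasts engineered with TERT, LT and ST, with cytotoxicity read by fluorescence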
BJ [17] = experiment: BJ-TERT-LT-ST fibroblast viability loss – cell-based, RAS-independent, luminescence, dose response (AID 1935); type: functional; details: Homo sapiens;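 further: BJ fibroblasts immortalized with TERT plus LT and ST oncogenes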
BJ [18] = experiment: BJ-TERT fibroblast viability loss – cell-based, RAS-independent, luminescence, dose response (AID 1933); type: functional; details: Homo sapiens
INS1 = experiment: INS-1E survival protection against cytokine death – cell-based, luminescence, retest, dose response (AID 449756); type: functional; details: Rattus norvegicus;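 further: cell death triggered by IL-1 beta plus TNF-alpha plus IFN-gamma mixture; protective hits raise ATP signal compared with cytokine alone wells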
Cytochrome P450 2C9 [19] = target: T2, Cytochrome P450 2C9; remark: listed apart in the source
[20] = DRD fibroblast viability loss – cell-based, non-viral oncogenic, luminescence, dose response (AID 1934); type: functional; details: Homo sapiens
BJ [21] = experiment: cells; type: functional, cell-based; details: Homo sapiens
[22] = activation of miR-122 Renilla sensor silencing – cell-based, Huh7 psiCHECK-miR122, Renilla luciferase, cherry-picked, dose response (AID 651956); type: functional;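 further: huh7 hepatoma cells stably carrying a psiCHECK-2 miR-122 sensor plasmid; renilla luciferase signal reporting endogenous miR-122 activity after 48 h compound exposure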
[23] = toxicity to human hepatoma HepG2 cells – cell-based, cherry-picked samples, cytotoxicity control, dose response (AID 1159577); type: functional
[24] = P. falciparum Dd2 growth inhibitors, dose response, SYBR Green, cherry-picked samples (AID 1159567); type: functional, cell-based
[25] = blockers of HIV-1 envelope-mediated cell-cell fusion – cherry-pick, dose response (AID 652057); type: functional, cell-based
Troponin, cardiac muscle = Troponin, cardiac muscle (Homo sapiens, UniProt P19429+P45379+P63316); experiment: Fluorescence-based biochemical high throughput dose response assay for activators of the calcium sensitivity of cardiac Regulated Thin Filaments (RTF). [Related pubchem assays (depositor defined):AID493008, AID493018, AID504382, AID504383]; type: protein-complex assay
[26] = target: T5, Carboxy-terminal domain RNA polymerase II polypeptide A small phosphatase 1 (Homo sapiens, UniProt Q9GZU7); experiment: CTDSP1 inhibitors, concentration-response, biochemical, absorbance readout, ultra-high-throughput screen actives (AID 540297); type: functional
T5 sequence (Q9GZU7 whole entry): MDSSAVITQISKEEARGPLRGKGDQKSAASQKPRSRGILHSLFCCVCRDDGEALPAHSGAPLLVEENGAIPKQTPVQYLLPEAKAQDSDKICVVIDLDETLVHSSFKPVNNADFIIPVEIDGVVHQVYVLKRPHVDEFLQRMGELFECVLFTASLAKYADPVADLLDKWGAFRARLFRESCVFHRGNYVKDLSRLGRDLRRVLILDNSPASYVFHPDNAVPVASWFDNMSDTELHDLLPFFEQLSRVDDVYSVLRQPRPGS

Cytochrome P450 3A4, sequence (P08684 whole entry): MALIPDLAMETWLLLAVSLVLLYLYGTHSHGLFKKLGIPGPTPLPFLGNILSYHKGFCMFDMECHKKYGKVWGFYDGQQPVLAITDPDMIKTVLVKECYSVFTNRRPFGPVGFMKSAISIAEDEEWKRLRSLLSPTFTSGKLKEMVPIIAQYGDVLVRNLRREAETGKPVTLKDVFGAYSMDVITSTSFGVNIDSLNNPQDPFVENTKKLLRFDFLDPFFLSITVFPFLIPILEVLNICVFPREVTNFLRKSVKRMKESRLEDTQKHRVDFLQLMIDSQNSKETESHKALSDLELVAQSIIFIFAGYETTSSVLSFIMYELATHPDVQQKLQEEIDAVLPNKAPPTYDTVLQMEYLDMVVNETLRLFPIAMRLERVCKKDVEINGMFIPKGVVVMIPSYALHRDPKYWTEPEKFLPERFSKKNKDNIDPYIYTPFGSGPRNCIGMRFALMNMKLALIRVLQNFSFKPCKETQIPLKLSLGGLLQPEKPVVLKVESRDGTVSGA
Luciferin 4-monooxygenase, sequence (P08659 whole entry): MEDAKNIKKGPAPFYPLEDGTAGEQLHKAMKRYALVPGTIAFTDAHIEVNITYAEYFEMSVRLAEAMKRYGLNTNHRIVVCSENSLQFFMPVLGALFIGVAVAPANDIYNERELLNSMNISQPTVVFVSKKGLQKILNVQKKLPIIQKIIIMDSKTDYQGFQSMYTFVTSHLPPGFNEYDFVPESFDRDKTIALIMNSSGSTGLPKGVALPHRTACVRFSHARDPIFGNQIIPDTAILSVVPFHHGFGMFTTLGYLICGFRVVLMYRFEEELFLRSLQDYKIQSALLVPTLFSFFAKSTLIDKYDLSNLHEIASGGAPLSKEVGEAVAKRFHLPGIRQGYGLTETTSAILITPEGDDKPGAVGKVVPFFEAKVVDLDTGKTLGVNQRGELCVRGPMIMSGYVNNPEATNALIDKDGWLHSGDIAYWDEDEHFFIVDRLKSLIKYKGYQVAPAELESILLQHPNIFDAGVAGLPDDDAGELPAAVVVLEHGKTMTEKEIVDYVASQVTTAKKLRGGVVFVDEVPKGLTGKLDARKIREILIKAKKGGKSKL
Beta-galactosidase, sequence (Q8VNN2 whole entry): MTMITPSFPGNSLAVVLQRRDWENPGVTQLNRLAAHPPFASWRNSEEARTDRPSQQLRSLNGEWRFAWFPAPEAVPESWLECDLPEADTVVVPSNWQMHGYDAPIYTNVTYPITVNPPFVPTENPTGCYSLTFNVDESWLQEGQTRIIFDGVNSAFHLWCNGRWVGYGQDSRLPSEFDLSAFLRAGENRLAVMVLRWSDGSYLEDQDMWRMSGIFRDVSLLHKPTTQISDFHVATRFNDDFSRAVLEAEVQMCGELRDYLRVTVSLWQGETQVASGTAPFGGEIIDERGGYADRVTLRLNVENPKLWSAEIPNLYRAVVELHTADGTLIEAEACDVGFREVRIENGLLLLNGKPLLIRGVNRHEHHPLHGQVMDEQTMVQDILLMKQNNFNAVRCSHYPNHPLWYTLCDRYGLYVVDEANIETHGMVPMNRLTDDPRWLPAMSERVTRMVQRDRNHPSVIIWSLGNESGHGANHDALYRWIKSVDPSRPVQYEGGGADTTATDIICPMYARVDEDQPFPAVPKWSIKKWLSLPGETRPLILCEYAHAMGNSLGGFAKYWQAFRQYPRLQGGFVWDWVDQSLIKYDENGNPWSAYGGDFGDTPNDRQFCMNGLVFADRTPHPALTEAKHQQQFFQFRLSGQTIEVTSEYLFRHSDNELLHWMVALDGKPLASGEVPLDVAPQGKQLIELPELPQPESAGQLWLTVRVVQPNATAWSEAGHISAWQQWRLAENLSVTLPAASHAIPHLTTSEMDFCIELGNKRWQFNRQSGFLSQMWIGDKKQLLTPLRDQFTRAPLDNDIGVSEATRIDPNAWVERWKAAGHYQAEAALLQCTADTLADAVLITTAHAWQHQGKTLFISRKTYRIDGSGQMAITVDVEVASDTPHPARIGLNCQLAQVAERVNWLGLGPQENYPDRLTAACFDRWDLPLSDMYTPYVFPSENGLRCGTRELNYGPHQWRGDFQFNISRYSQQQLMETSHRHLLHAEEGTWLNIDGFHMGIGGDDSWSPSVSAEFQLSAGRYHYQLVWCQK
Ras and Rab interactor 1/Tyrosine-protein kinase ABL1, sequence (P00519 whole entry): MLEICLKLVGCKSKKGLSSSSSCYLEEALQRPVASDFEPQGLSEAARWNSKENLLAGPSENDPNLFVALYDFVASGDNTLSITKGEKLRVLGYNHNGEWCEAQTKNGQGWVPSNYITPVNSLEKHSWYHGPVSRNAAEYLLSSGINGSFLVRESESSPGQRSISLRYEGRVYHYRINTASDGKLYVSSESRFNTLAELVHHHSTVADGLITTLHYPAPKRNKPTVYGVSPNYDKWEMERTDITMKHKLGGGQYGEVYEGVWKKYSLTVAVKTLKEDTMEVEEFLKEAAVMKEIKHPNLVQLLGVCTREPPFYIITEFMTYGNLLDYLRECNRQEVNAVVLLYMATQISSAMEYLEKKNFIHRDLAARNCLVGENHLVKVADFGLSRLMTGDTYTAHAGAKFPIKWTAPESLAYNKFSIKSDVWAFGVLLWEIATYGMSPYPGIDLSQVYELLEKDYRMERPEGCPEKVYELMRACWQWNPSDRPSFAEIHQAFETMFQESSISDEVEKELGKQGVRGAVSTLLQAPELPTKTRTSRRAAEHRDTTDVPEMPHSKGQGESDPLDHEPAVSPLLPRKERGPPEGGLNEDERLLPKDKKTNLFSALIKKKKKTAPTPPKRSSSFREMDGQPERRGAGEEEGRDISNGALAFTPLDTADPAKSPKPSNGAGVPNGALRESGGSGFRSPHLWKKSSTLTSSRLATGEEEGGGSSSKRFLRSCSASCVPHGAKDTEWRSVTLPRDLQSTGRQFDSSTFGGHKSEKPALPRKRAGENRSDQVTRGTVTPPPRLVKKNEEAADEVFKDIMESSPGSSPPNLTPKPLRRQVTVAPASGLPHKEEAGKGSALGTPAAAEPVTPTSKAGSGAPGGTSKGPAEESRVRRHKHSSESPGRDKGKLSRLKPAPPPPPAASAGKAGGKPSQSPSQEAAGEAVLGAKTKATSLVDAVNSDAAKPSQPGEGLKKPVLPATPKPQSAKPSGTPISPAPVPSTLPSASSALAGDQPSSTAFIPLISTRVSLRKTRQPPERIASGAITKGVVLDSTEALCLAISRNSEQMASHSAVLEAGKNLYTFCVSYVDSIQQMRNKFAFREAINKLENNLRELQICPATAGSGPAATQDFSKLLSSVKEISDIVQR
Ras and Rab interactor 1/Tyrosine-protein kinase ABL1, sequence (Q13671 whole entry): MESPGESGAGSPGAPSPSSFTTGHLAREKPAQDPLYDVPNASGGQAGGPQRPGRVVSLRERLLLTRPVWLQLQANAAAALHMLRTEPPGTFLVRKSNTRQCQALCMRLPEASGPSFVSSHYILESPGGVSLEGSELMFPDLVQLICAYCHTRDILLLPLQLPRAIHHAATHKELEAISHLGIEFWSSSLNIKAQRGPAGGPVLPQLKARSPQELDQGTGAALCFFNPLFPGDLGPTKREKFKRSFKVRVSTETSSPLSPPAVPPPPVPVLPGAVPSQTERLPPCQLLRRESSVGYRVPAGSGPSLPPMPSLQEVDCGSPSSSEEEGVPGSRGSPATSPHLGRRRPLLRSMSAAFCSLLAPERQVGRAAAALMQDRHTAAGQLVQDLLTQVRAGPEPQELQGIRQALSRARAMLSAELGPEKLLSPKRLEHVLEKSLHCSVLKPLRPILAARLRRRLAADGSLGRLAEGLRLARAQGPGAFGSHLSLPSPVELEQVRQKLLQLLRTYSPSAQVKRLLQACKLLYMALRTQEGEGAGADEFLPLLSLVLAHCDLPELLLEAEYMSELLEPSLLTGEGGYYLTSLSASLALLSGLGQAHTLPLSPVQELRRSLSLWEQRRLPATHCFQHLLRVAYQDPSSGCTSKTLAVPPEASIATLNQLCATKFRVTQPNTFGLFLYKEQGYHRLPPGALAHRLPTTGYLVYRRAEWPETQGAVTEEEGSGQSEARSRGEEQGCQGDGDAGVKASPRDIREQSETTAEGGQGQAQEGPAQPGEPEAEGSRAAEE
T2 sequence (P11712 whole entry): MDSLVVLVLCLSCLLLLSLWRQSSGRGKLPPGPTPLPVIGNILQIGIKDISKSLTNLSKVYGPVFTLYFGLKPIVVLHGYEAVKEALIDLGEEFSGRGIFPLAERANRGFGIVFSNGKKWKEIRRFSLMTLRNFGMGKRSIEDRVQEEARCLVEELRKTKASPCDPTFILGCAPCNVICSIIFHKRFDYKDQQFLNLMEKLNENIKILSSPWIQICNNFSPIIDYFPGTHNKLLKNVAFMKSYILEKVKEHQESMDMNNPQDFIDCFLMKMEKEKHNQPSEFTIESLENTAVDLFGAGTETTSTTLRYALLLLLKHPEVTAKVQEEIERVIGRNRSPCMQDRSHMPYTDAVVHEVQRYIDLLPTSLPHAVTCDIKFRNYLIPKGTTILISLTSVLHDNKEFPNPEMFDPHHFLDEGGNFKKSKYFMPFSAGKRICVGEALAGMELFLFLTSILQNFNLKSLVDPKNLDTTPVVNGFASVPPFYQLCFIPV
Paired box protein Pax-8, sequence (Q06710 whole entry): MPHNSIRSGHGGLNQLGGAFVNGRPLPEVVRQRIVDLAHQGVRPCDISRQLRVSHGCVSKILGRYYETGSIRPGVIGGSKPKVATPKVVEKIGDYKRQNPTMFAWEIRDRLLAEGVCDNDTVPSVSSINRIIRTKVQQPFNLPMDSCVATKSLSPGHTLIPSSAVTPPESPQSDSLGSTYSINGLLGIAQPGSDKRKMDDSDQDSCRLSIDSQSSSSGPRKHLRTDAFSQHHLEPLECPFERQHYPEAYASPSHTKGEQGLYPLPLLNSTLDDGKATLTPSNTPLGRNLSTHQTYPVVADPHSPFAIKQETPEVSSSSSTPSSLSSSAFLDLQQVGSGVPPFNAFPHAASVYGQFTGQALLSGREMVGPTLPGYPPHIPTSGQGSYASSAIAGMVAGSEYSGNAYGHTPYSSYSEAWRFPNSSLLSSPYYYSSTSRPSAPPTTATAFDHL

## O=C(/C=C/c1ccccc1)N1CCN(Cc2nc(O)c3ccccc3n2)CC1
Cytochrome P450 1A2
  AC50: 31.6 µM (inconclusive)
Beta-galactosidase
  IC50: > 80 µM (inactive)

## O=C(OC1CCN(c2ncc(C(F)(F)F)cc2Cl)CC1)c1ccccc1
Cytochrome P450 3A4
  AC50: inconclusive

## CCC(=O)N1CCN(c2ccc(NC(=O)c3cccs3)cc2)CC1
Cytochrome P450 2C9 [1]
  AC50: inconclusive
Cytochrome P450 3A4
  AC50: inconclusive
Cytochrome P450 2C19
  AC50: 0.501 µM (inconclusive)

## CCCCc1c(C)nc2ccc(Br)cc2c1SCCC#N
Prothrombin
  IC50: > 50 µM (not active)
[2]
  CC50: 16.3 µM (active)

## O=C(O)c1cccc(Nc2ccnc(Nc3cccc(C(=O)O)c3)n2)c1
[3]
  EC50: 0.281 µM (active)
[4]
  AC50: 2.9 µM (active)
[5]
  AC50: 2.56 µM (active)
HEK293
  AC50: 3.56 µM (active)

## CN(C)S(=O)(=O)c1ccc(C(=O)Nc2nc(-c3cccs3)cs2)cc1
[6]
  AC50: 0.879 µM (active)
[7]
  EC50: 79.7 µM (active)
[8]
  AC50: > 70 µM (inactive)
[9]
  AC50: 9.43 µM (active)
[10]
  EC50: 102 µM (active)
[11]
  AC50: 67.7 µM (active)

## COC(=O)c1ccc(CSc2nnc(-c3ccncc3)o2)o1
[12]
  IC50: 11 µM (inactive)
cells
  IC50: 39.6 µM (active)

## CCCCN1C(=O)N(C)C2NC(=O)NC21 (configuration not stated)
[12]
  IC50: 3 µM (active)

## COc1cc(CNc2ccc3[nH]c(=O)[nH]c3c2)ccc1OCC(=O)NC(C)(C)C
[13]
  EC50: > 112 µM (not active)
[14]
  IC50: > 50 µM (not active)

## Cc1ccccc1S(=O)(=O)N1[C@H](C#N)[C@H](c2ccc(C#CC3CCCCC3)cc2)[C@H]1CO
[4]
  AC50: 10.7 µM (active)
[5]
  AC50: 13 µM (active)

## Cc1cccc(NCCC(=O)c2ccc([N+](=O)[O-])cc2)c1C
cells
  IC50: 18 µM (active)
[14]
  IC50: > 50 µM (not active)

## COc1cccc(CN2CCN(C(=O)COc3ccc4ccccc4c3)CC2)c1
[13]
  EC50: > 112 µM (not active)
[15]
  EC50: > 112 µM (not active)
Beta-galactosidase
  IC50: > 80 µM (inactive)

## CCOC(=O)C1=C(N)n2c(s/c(=C/c3ccco3)c2=O)=C(C(=O)OC)C1c1ccco1 (configuration not stated)
[2]
  CC50: > 40 µM (active)

## FC(F)(F)c1nnc2c(Sc3ccccc3)nc3ccc(Cl)cc3n12
Cytochrome P450 3A4
  AC50: inconclusive
Paired box protein Pax-8
  AC50: 1.52 µM (active)
BJ [16]
  EC50: 0.599 µM (active)
BJ [17]
  EC50: 3.65 µM (active)
BJ [18]
  EC50: 1.8 µM (inconclusive)
INS1
  AC50: 7.41 µM (active)
Cytochrome P450 2C9 [19]
  AC50: 8.91 µM (inconclusive)
[20]
  EC50: 4.19 µM (active)
BJ [21]
  EC50: 23.4 µM (active)

## C[C@H](CO)N1C[C@H](C)[C@H](CN(C)C(=O)Nc2ccc3c(c2)OCO3)Oc2ncc(-c3cccc(C(F)(F)F)c3)cc2C1=O
[22]
  AC50: 14.1 µM (active)

## COc1ccc(C#Cc2ccc([C@@H]3[C@@H](CO)N4CCCCN(C(=O)Nc5ccccc5)C[C@H]34)cc2)cc1
[23]
  AC50: 11.4 µM (active)
[24]
  AC50: 1.29 µM (active)
[22]
  AC50: 6.46 µM (active)

## CCN(CC)c1ccc(/C=N/N2C(C)CCCC2C)c(O)c1 (configuration not stated)
[25]
  AC50: 2.22 µM (active)
[8]
  AC50: > 70 µM (inactive)
[11]
  AC50: 48.3 µM (active)

## CSC1=C(C#N)C(c2ccccc2Cl)C2=C(O)c3ccccc3C2=N1 (configuration not stated)
Cytochrome P450 3A4
  AC50: inconclusive

## Cc1cc(NC(=O)CCNS(=O)(=O)c2cc(Br)cnc2N)ccc1Br
[2]
  CC50: > 40 µM (active)

## Oc1c(CN2CCOCC2)ccc2ccccc12
[14]
  IC50: > 50 µM (not active)

## Cc1ccc(NC(=O)COc2ccc(/C=N/NC(=O)CSCc3ccccc3)cc2)cc1
Troponin, cardiac muscle
  EC50: > 71.5 µM (inactive)
[26]
  IC50: 9.82 µM (active)

— ChEMBL document CHEMBL1201862, “PubChem BioAssay data set” (2004)
